Patent US4083987A, “4-Imino-1,3-diazabicyclo-(3.1.0)-hexan-2-one as a cancerostat and immuno-stimulant” (Boehringer Mannheim GmbH, priority 1975, dated 1978)

Columns and labels:
Walker sarcoma 256 = assay: Cancerostatic effectiveness: inhibition of tumor growth of Walker sarcoma 256 after a single administration; assay type: in vivo, Sprague-Dawley rats; conditions: for % inhibition of the growth of Walker sarcoma 256: single administration, tumor weight after 10 days
Protocol: Sprague-Dawley rats with a body weight of 80 to 120 g and an age of 6 to 8 weeks were subcutaneously inoculated in the neck with tumor cells. In each case, there was used 0.1 ml of an aqueous suspension of about 10^6 tumor cells of the Walker sarcoma 256 (solid, rat).
4-Imino-1,3-diazabicyclo[3.1.0]hexan-2-one was dissolved in physiological saline solution (in each case, the desired amount in 5 ml solution/kg body weight of experimental animal). 6 Hours after inoculation of the animals, these solutions were administered intravenously or orally by means of a stomach tube. The control animals received 5 ml/kg body weight of physiological saline. 20 experimental animals and 20 control animals were used per experiment. The animals were sacrificed with ether after 10 days, the tumors extirpated and the weight of the tumors of the control group compared with those of the experimental group.

leukocytes = assay: Immunity-stimulating action: corpuscular blood components (leukocytes, lymphocytes, erythrocytes) after a single intravenous administration; assay type: in vivo, Sprague-Dawley rats; conditions: for number of leukocytes/mm^3: third day, control 7,300
Protocol: The active material, dissolved in 5 ml physiological saline, was administered intravenously into a vein in the tails of 8 Sprague-Dawley rats with an average body weight of 200 to 250 g. As controls, there were used 8 rats which were only treated with 5 ml physiological saline per kg. body weight. In the following days, 1 to 2 drops of blood were taken from a tail vein and the corpuscular blood components determined. The average values were determined statistically from the 8 values of the individual animals.

[1] = tested on: antibody-forming spleen cells; assay: Number of antibody-forming spleen cells by Jerne's method after intravenous administration; assay type: in vivo, mice; conditions: three days; for number of antibody-forming spleen cells: mice immunized with sheep erythrocytes, control 4,600; for antibody-forming spleen cells, % of the control: mice
Protocol: 20 male white mice with a body weight of 20 to 25 g were each immunized with 1 ml preserved sheep erythrocytes (1 ml contains 5 × 10^8 erythrocytes). On the same day, 4-imino-1,3-diazabicyclo[3.1.0]hexan-2-oneor a comparative active material, dissolved in 5 ml physiological saline/kg. mouse body weight, were administered intravenously. For control purposes, 20 animals were also immunized with 1 ml sheep erythrocytes and treated with 5 ml/kg physiological saline. Three days after administration, the spleens of the animals were removed under sterile conditions and the number of antibody-forming spleen cells determined according to Jerne's technique. The individual values were determined.

[2] = Acute toxicity (LD50), rats; conditions: rat, in vivo, single intravenous dose
[3] = Solubility in water, physiological saline and aqueous alkali metal hydroxide solutions; assay type: physicochemical
Stability = assay type: physicochemical
in vivo = conditions: mouse, iv
[4] = Acute toxicity (LD50), mice; conditions: mouse, in vivo, po
[5] = single intravenous, rats, in words

With `N=C1NC(=O)N2CC12` (centres unmarked) [4-imino-1,3-diazabicyclo-[3.1.0]hexan-2-one] the tumor growth (Walker sarcoma 256; intravenous and oral administration) was “significantly inhibited”, the “% inhibition of the growth of Walker sarcoma 256” value (shortened to “% inhibition”) (Walker sarcoma 256; intravenous, 0.1 mg/kg) was 7.5% and the “% inhibition” value (Walker sarcoma 256; intravenous, 1.0 mg/kg) was 17.5%. The “% inhibition” value (Walker sarcoma 256; intravenous, 10.0 mg/kg) was 49.5%, the “% inhibition” value (Walker sarcoma 256; intravenous, 100.0 mg/kg) was 31.0% and the “% inhibition” value (Walker sarcoma 256; intravenous, 200.0 mg/kg) was 39.5%. The “% inhibition” value (Walker sarcoma 256; oral, 5.0 mg/kg) was 20.0%, the “% inhibition” value (Walker sarcoma 256; oral, 125.0 mg/kg) was 62.0% and the “number of leukocytes/mm^3” value (leukocytes; 2 mg/kg rat, single intravenous) was 10,300 leukocytes/mm^3. The “number of leukocytes/mm^3” value (leukocytes; 5 mg/kg rat, single intravenous) was 9,800 leukocytes/mm^3, the “number of leukocytes/mm^3” value (leukocytes; 10 mg/kg rat, single intravenous) was 10,800 leukocytes/mm^3 and the “number of leukocytes/mm^3” value (leukocytes; 20 mg/kg rat, single intravenous) was 12,300 leukocytes/mm^3. The “number of leukocytes/mm^3” value (leukocytes; 40 mg/kg rat, single intravenous) was 10,800 leukocytes/mm^3, the “number of leukocytes/mm^3” value (leukocytes; 75 mg/kg rat, single intravenous) was 11,800 leukocytes/mm^3 and the “number of leukocytes/mm^3” value (leukocytes; 150 mg/kg rat, single intravenous) was 8,000 leukocytes/mm^3. For the same compound, the “number of leukocytes/mm^3” value (leukocytes; 400 mg/kg rat, single intravenous) was 6,500 leukocytes/mm^3, the “dosage necessary for immunity stimulation” value (leukocytes; deduced from the experiments, all at once or in several doses) was 1 to 50 mg/kg body weight and the “time after which the effect slowly decreases” value (leukocytes; immunity stimulation) was “about 2 weeks”. The number of leukocytes (leukocytes; [5]) was “increased considerably”, the “percentage proportion of the lymphocytes” value (leukocytes; [5]) was “increased” and the number of erythrocytes (leukocytes; single intravenous, rats, whole experimental period) was “did not change significantly”. The “time until the values of the control animals were again reached” value (leukocytes; single intravenous, rats, only after the expiry of) was 20 to 25 days, the “number of antibody-forming spleen cells” value ([1]; 2.5 mg/kg intravenous) was 23,000 spleen cells and the “antibody-forming spleen cells, % of the control” value (from here on “antibody-forming spleen cells, %”) ([1]; 2.5 mg/kg intravenous) was 500 % of the control. The LD50 [2] was 660 mg/kg, the water solubility [3] was “good water solubility” and the solubility ([3]; physiological saline and aqueous alkali metal hydroxide solutions) was “very readily soluble”. The acid stability (Stability; acid) was “acid labile”, the “stability in dry form” value (Stability; dry form) was “stable in dry form” and the LD50 (in vivo) was 750 mg/kg. The LD50 [4] was greater than 4000 mg/kg.

For `O=P1(N(CCCl)CCCl)NCCCO1` (centres unmarked) [cyclophosphamide], the “number of antibody-forming spleen cells” value ([1]; 125.0 mg/kg intravenous) was 460 spleen cells and the “antibody-forming spleen cells, %” value ([1]; 125.0 mg/kg intravenous) was 10 % of the control.

For phytohaemagglutinin, the “number of antibody-forming spleen cells” value ([1]; 500.0 mg/kg intravenous) was 1,400 spleen cells and the “antibody-forming spleen cells, %” value ([1]; 500.0 mg/kg intravenous) was 30 % of the control.
